Laboratory results from PubChem BioAssay (NCI).
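Where inhibition never reached the appropriate level, the endpoint shown equals the highest concentration tested. Otherwise, values were interpolated linearly from a five-concentration, 48-hour dose response in 96-well plates. TGI marks complete inhibition of growth.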

Columns and labels:
Test in all cases: growth of human tumour cells (NCI), 48 h
[1] = tested on: U251 CNS
[2] = tested on: SNB-78 CNS
[3] = tested on: XF 498 CNS
[4] = tested on: KM20L2 colon
[5] = tested on: HOP-62 NSCLC
[6] = tested on: DMS 273 small cell lung
[7] = tested on: LXFL 529 NSCLC
[8] = tested on: DLD-1 colon
[9] = tested on: DMS 114 small cell lung
[10] = tested on: HOP-18 NSCLC
[11] = tested on: CCRF-CEM leukemia
[12] = tested on: M19-MEL melanoma
[13] = tested on: K-562 leukemia
[14] = tested on: HL-60(TB) leukemia
[15] = tested on: RXF-631 renal
[16] = tested on: MDA-MB-231 breast

SMILES	TGI [1] [µM]	TGI [2] [µM]	TGI [3] [µM]	TGI [4] [µM]	TGI [5] [µM]	TGI [6] [µM]	TGI [7] [µM]	TGI [8] [µM]	TGI [9] [µM]	TGI [10] [µM]	TGI [11] [µM]	TGI [12] [µM]	TGI [13] [µM]	TGI [14] [µM]	TGI [15] [µM]	TGI [16] [µM]
CN(CCO)c1nc2c(c(=O)[nH]1)CCC2	> 100	> 100	> 100	> 100	> 100	> 100	> 100	> 100	> 100	> 100	> 100	> 100	> 100	> 100		
CC(=O)C1=CSC2[C@H](NC(=O)Cc3ccccc3)C(=O)N2C1C(=O)OC(c1ccccc1)c1ccccc1 (some centres not stated)		> 100	> 100		> 100	> 100	> 100	> 100	> 100		68.2	> 100	> 100	> 100	> 100	
CCOC1(COP(=O)(OCc2ccccc2)OCc2ccccc2)COC(COP(=O)(OCc2ccccc2)OCc2ccccc2)(OCC)CO1 (configuration not stated)	> 100	> 100	> 100	> 100	> 100	> 100	> 100	> 100		> 100	> 100	> 100	> 100	> 100	> 100	
Cc1cc(=O)[nH]c(NN2C(Cl)C(=O)C2c2ccc(Cl)cc2)n1 (configuration not stated)	52.4	39		44.5	48.6	25.9	19.2		30	23.2	5.67	35.7	16.2	12.7		72
CCOC(=O)c1nc2ccc([N+](=O)[O-])cc2c2c1CCO2	> 100	> 100	> 100	> 100	> 100	> 100	> 100	> 100	> 100	> 100	> 100	> 100	> 100	> 100	> 100	
CC12NN=NC1C(=O)NC2=O (configuration not stated)	> 100	> 100		> 100	> 100	> 100	> 100	> 100	> 100		> 100	> 100	> 100	> 100		
CC1=C(N2CC2)C(=O)c2nc3n(c2C1=O)CCC3OC(=O)CCl (configuration not stated)	0.237	0.6	0.0954	0.547	0.145	0.128	0.227	1.58	0.512	0.178	3.65	0.266	1.61	3.18		> 100
C=CCc1cc(OC)c2c(c1)C(O)CC(c1ccccc1)O2 (configuration not stated)	> 100	> 100		> 100	> 100	> 100	> 100	> 100	> 100	> 100	> 100	> 100	> 100	> 100	> 100	
CCOc1ccc2nc(NC(=O)c3c/c(=N\NC(=O)C[N+](C)(C)C)c4ccc(O)cc4o3)sc2c1	10.5	15.5	6.14	10		28.7	4.45	13.4	4.51	5.05	5.96	0.501	6.08	3.83	26.8	
O=c1cc(-c2ccccc2)[nH]c2cc(O)ccc12	90.7	> 100	50.4	40.4	70.9	87.8	> 100	35.7	34	> 100	42.6	35.3	39.2	40.7	> 100	
CCOC(=O)C1=C(O)C(=O)c2ccsc2C1=O	> 100	> 100		> 100	> 100	> 100		> 100	> 100	> 100	> 100	40.5	> 100	> 100		
COc1ccc(NC(=O)C/C(C)=N\N=C(N)N)c([N+](=O)[O-])c1	> 100	> 100	> 100	> 100	> 100	> 100	> 100	> 100	> 100	> 100	> 100	> 100	> 100	> 100		
CN(C)CCCNC(=O)N/N=C/c1cccc([N+](=O)[O-])c1	> 100	> 100	> 100			> 100	> 100	> 100	> 100	> 100	> 100		> 100			
CCO[C@]12C[C@H](OC)[C@@]3(O)CC(C1[C@H]3OCc1ccccc1)C13C4C2[C@H](OC)C1[C@](COC)(CN4CC)[C@H](O)C[C@@H]3OC (some centres not stated)	> 100	> 100	> 100	> 100	> 100	> 100	> 100	> 100	> 100		> 100	> 100	> 100	> 100		
COc1cc(OC)c(/C=C2\N=C(C)N(Nc3nnc(NN4C(=O)/C(=C/c5c(OC)cc(OC)cc5OC)N=C4C)c4ccccc34)C2=O)c(OC)c1	> 100	> 100		> 100	> 100	> 100	> 100	> 100	> 100	> 100	> 100	> 100	> 100	> 100		
C=CCOC(=O)/C(=C\c1ccc(OC)c(OC)c1)c1ccc(OC)c(OC)c1	> 100				> 100						> 100		> 100	40.3		> 100
CC1C(c2ccccc2)OP(=O)(OC(C#N)c2ccccc2)N1C (configuration not stated)	> 100				> 100						> 100		> 100	> 100		> 100
C=C1CC2OC2(C(=O)O[C@H]2CCC3[C@@H]4CCC5=CC(=O)CC[C@]5(C)C4CC[C@@]32C)C1=O (some centres not stated)	21.2	19.5	9.92	16.2	44.4	9.15	6.08	16.5	10.4	12.7	12.7	31.7	7.03	3.93		
NNC(=O)c1ccc(-n2nnc(C(=O)NN)c2C(=O)NN)cc1	> 100				> 100						> 100		> 100	> 100		> 100
